In patent US20230293475A1, “METHODS OF PROVIDING SO[…] TO SUBJECTS WITH IMPAIRED RENAL FUNCTION” (Axsome Malta Ltd., priority 2020, published 2023):
Read-outs that look alike come from different tables or passages of the source.

Key:
[1] = 12-week placebo-controlled trials comparing various doses; cited from earlier work
[2] = Phase 1 study, removal of solriamfetol by 4-hour hemodialysis in ESRD; type: in vivo, human
Description: (§1) Groups 1-4 received one dose of solriamfetol HCl (89.3 mg; equivalent to 75-mg solriamfetol) on day 1; Group 5 received one dose equivalent to 75-mg dose on day 1 followed by 4-hour hemodialysis (designated Group 5.2), and one dose equivalent to 75-mg solriamfetol on day 8 without hemodialysis (designated Group 5.1). All doses were administered on an empty stomach following an overnight fast except for participants in Group 5, who received a standardized snack on day 7 and breakfast early on day 8 before starting an 8-hour fast. Participants remained fasting for 4 hours after administration, with water allowed except for 1 hour before and after dosing.
Urine samples were collected predose and for the time intervals of 0-4, 4-8, 8-12, 12-24, and 24-48 hours in Groups 1-3, with additional collection for the 48-72 hour time interval in Groups 4 and 5. During the hemodialysis period on day 1 for Group 5, dialysate samples and pre- and post-dialyzer paired blood samples were collected at pre-dialysis (2 hours), and at 3, 4, 5, and 6 hours following dosing. […]
Bioanalytical analyses were performed by a central laboratory (KCAS, LLC, Shawnee, Kansas) using validated proprietary methods that included extraction/derivatization and liquid chromatography-tandem mass spectrometry (LC-MS/MS). […] Assay performance was monitored by spiking blank interference free human plasma with positive controls and internal standards to generate standard curve and quality control samples. […] Quantification was based on setting a calibration graph using the internal standard method. […]
The following plasma PK parameters were evaluated using non-compartmental analysis in Phoenix® WinNonlin® Version 6.3: Cmax; time to reach Cmax following drug administration (tmax); t½; area under the plasma concentration-time curve from time zero to time of last quantifiable concentration (AUCt); AUC from time zero to infinity (AUC∞); apparent total clearance of the drug from plasma after oral administration (CL/F); and apparent volume of distribution (Vd/F). […]

[3] = Phase 1 single-dose study, urinary excretion of solriamfetol; type: in vivo, human; conditions: for Fe(0-48), fraction of the dose excreted unchanged in urine in 48 hours, mean ± SD (%CV) / CL renal: single 75-mg dose; for cumulative amount excreted in urine: Group 5 ESRD, 1 participant; for CL renal: both sexes, human, urine, oral, 75 mg, read-out: CLR, renal clearance, mean ± SD (%CV) (converted)
Description: as §1
Urine samples were collected predose and for the time intervals of 0-4, 4-8, 8-12, 12-24, and 24-48 hours in Groups 1-3, with additional collection for the 48-72 hour time interval in Groups 4 and 5. During the hemodialysis period on day 1 for Group 5, dialysate samples and pre- and post-dialyzer paired blood samples were collected at pre-dialysis (2 hours), and at 3, 4, 5, and 6 hours following dosing. Urine and dialysate samples were aliquoted into polypropylene tubes for freezing and storage at -70° C. until analysis. All blood, urine, and dialysate samples were shipped on dry ice to a central bioanalytical laboratory.
Bioanalytical analyses were performed by a central laboratory (KCAS, LLC, Shawnee, Kansas) using validated proprietary methods that included extraction/derivatization and liquid chromatography-tandem mass spectrometry (LC-MS/MS). Measurement of solriamfetol was over the linear range of 8.42 to 4,210 ng/mL in plasma, 0.21 to 84.2 µg/mL in urine, and 1.68 to 842 ng/mL in dialysate. Solriamfetol was removed from dialysate samples with use of the Fresenius Optiflux F180NR dialyzer (Fresenius Medical Care, Waltham, Massachusetts). Assay performance was monitored by spiking blank interference free human plasma with positive controls and internal standards to generate standard curve and quality control samples. After derivatization, samples were chromatographed on a C8 reversed phase analytical HPLC (high-performance liquid chromatography) column, with subsequent monitoring using an API4000 LC-MS/MS unit (Sciex, Framingham, Massachusetts). Quantification was based on setting a calibration graph using the internal standard method. Coefficients of variation (CVs) for quality control samples were 3.2% to 6.0% for the plasma samples, 1.6% to 5.6% for the urine samples, and 3.5% to 7.1% for the dialysate samples.
The following plasma PK parameters were evaluated using non-compartmental analysis in Phoenix® WinNonlin® Version 6.3: Cmax; time to reach Cmax following drug administration (tmax); t½; area under the plasma concentration-time curve from time zero to time of last quantifiable concentration (AUCt); AUC from time zero to infinity (AUC∞); apparent total clearance of the drug from plasma after oral administration (CL/F); and apparent volume of distribution (Vd/F). The PK parameters for solriamfetol in urine included the amount of unchanged drug excreted in urine (Ae) over 48 or 72 hours; the fraction of the dose excreted unchanged in urine (Fe); and renal clearance of the drug (CLR). For participants on hemodialysis (Group 5), the additional PK parameters included the amount of solriamfetol cleared by the 4-hour hemodialysis (Adial); the fraction of dose removed by the 4-hour hemodialysis (Fdial); and hemodialysis clearance (CLdial) calculated as CLdial = Adial/AUCdial where AUCdial is the area under the pre-dialyzer plasma concentration-time curve during the hemodialysis period.

[4] = Group 3 moderate renal impairment
[5] = Group 4 severe renal impairment

SMILES: NC(=O)OC[C@H](N)Cc1ccccc1 [solriamfetol, [R]-2-amino-3-phenylpropylcarbamate]
- adverse effects (headache, nausea, decreased appetite, anxiety and others), dependence on dose [1]: dose-dependent
- hemodialysis clearance, lower than renal clearance in normal renal function [2]: approximately 30%
- clearance ([2]; both sexes, human, dialysate, oral, 75 mg, day 1): 207 mL/min
- cumulative fraction of the 75-mg dose removed over the 4-hour hemodialysis period, mean ([2]; day 1): 20.6%
- Fe(0-48), fraction of the dose excreted unchanged in urine in 48 hours, mean ± SD (%CV) ([3]; Group 1 normal renal function): 85.8%
- Fe(0-48), fraction of the dose excreted unchanged in urine in 48 hours, mean ± SD (%CV) ([3]; Group 2 mild renal impairment): 80.0%
- Fe(0-48), fraction of the dose excreted unchanged in urine in 48 hours, mean ± SD (%CV) [3, 4]: 66.4%
- Fe(0-48), fraction of the dose excreted unchanged in urine in 48 hours, mean ± SD (%CV) [3, 5]: 57.1%
- cumulative amount excreted in urine ([3]; with hemodialysis): 42.1%
- cumulative amount excreted in urine ([3]; without hemodialysis): 52.9%
- CL renal ([3]; Group 1 normal renal function): 283 mL/min
- CL renal ([3]; Group 2 mild renal impairment): 155 mL/min
- CL renal [3, 4]: 96.7 mL/min
- CL renal [3, 5]: 63.3 mL/min
- mean percentage of dose recovered in urine as unchanged drug over 72 hours ([3]; severe renal impairment): 64.0%
